{"source": "patent US20080114005A1", "about": "“Fibrate Compounds Having Ppar Agonist Activity” (Dr. Reddy's Laboratories Limited, priority 2004, published 2008)", "key": {"[1]": {"test_system": "Swiss albino mice", "assay": "plasma triglyceride lowering activity in Swiss albino mice", "format": "in vivo", "settings": "3.0 mg/kg orally for 6 days", "procedure": "The properties of the derivatives of the invention were also evaluated in vivo. The following procedure was used to determine plasma triglyceride and total cholesterol lowering activity in Swiss albino mice.\nMale Swiss albino mice (SAM) were obtained from National Institute Nutrition (NIN) and housed in Dr. Reddy's Laboratories Ltd (DRL) animal house. All these animals are maintained under 12 hour light and dark cycle at 25±1° C. Animals were given standard laboratory chow (NIN, Hyderabad, India) and water, ad libitum. SAM of 20-25 grams body weight range were used. See Oliver, P., Plancke, M. O., Marzin, D., Clavey, V., Sauzieres, J and Fruchart, J. C. Effects of fenofibrate, gemfibrozil and nicotinic acid on plasma lipoprotein levels in normal and hyperlipidemic mice, Atherosclerosis. 1988. 70: 107-114, incorporated herein by reference in its entirety. The test compounds can be administered orally to Swiss albino mice at the dose mentioned in table for 6 days. Control mice were treated with vehicle 0.25% Carboxymethylcellulose (CMC; dose 10 ml/kg). The blood samples from the retro-orbital sinus through heparinised capillary in EDTA containing tubes were collected in fed state 1 hour after drug administration on 0 and 6 days of treatment. After centrifugation plasma was separated for triglyceride measurement using commercial kits. See Wieland, O. Methods of Enzymatic analysis. Bergermeyer, H. O., Ed., 1963. 211-214; Trinder, P. Ann. Clin. Biochem. 1969. 6: 24-27, incorporated herein by reference in its entirety. Percent reduction was calculated as per the formula given in Petit, D., Bonnefis, M. T., Rey, C. and Infante, R. Effects of ciprofibrate on liver lipids and lipoprotein synthesis in normo- and hyperlipidemic rats. Atherosclerosis. 1988. 74 : 215-225."}, "[2]": {"test_system": "hypercholesterolemic rat model", "assay": "plasma triglyceride and cholesterol lowering activity in hypercholesterolemic rat model", "format": "in vivo, Sprague Dawley rats", "settings": "hypercholesterolemic rats, 3.0 mg/kg orally for 3 days", "procedure": "The following procedure was used to determine plasma triglyceride and cholesterol lowering activity in hypercholesterolemic rat model.\nMale Sprague Dawley rats (NIN stock) were bred in DRL animal house. Animals were maintained under 12 hour light and dark cycle at 25±1° C. Rats of 180-200 gram body weight range were used for the experiment. Animals are made hypercholesterolemic by feeding 2% cholesterol and 1% sodium cholate mixed with standard laboratory chow [National Institute of Nutrition (NIN), Hyderabad, India] for 6 days. Throughout the experimental period the animals were maintained on the same diet. The test compounds were administered orally at a dose mentioned in table for 3 days. Control group was treated with vehicle alone (0.25% CMC; 10 ml/kg). The blood samples were collected in fed state 1 hour after drug administration on 0 and 3 days of compound treatment. The blood was collected from the retro-orbital sinus through heparinised capillary in EDTA containing tubes. After centrifugation, plasma sample was separated for total cholesterol, HDL and triglyceride estimations. Measurement of plasma triglyceride, total cholesterol and HDL were done using commercial kits. LDL and VLDL cholesterol can be calculated from the data obtained for total cholesterol, HDL and triglyceride.\nThe percent reductions in blood sugar/triglycerides/total cholesterol were calculated according to the following formula:\nOC=Zero day control group value\nOT=Zero day treated group value\nTC=Test day control group value\nT=Test day treated group value.\nThe levels of LDL and VLDL cholesterol were calculated according to the formula:\nVLDL cholesterol in mg/dl=[Total cholesterol-HDL cholesterol-LDL cholesterol] mg/dl."}, "[3]": {"molecular_target": "T1, human PPARδ (Homo sapiens, UniProt Q03181)", "T1 construct": "expressed in transfected cells; host or cells: HEK-293", "T1 sequence (Q03181 211-439 limits assumed)": "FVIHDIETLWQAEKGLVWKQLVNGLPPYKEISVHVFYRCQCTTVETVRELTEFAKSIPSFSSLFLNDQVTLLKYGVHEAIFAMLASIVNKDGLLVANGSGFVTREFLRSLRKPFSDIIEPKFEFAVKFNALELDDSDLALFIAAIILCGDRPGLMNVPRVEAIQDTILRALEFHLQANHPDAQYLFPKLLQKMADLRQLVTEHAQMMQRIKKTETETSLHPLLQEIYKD", "assay": "in vitro PPARδ transactivation, GAL4-LBD luciferase reporter in HEK-293 cells", "format": "cell-based", "settings": "luciferase fold activation relative to untreated cells", "procedure": "(§1) The following procedure was used for in vitro determination of PPARα, γ and δ transactivation.\n(§2) The ligand binding domain of human PPARγ1, PPARα or PPARδ was fused to the C-terminal end of DNA binding domain of yeast transcription factor GAL4 in eukaryotic expression vector. HEK-293 cells were transfected with either of these plasmids, reporter plasmid pGL2 (Gal4×5)˜SV40˜Luc and pAdVantage using superfect (Qiagen, Germany) for 3 hours. pAdVantage vector was used to enhance the luciferase expression. 48 hours after transfection, the cells were harvested and incubated overnight with or without test compounds at different concentrations. The cells were lysed and luciferase activity was measured using the LucLite kit (Packard USA). Luciferase activity was measured as fold activation relative to untreated cells."}, "[4]": {"molecular_target": "T2, human PPARα (Homo sapiens, UniProt Q07869)", "T2 construct": "expressed in transfected cells; host or cells: HEK-293", "T2 sequence (Q07869 239-466 limits assumed)": "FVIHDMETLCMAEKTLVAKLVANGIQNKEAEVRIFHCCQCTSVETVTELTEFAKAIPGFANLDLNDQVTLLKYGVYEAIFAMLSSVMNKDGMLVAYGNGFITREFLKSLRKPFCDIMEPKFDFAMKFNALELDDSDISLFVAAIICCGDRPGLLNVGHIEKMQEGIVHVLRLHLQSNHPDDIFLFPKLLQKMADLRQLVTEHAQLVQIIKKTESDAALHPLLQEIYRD", "assay": "in vitro PPARα transactivation, GAL4-LBD luciferase reporter in HEK-293 cells", "format": "cell-based", "settings": "luciferase fold activation relative to untreated cells", "excerpt": "A number of derivatives of the invention have shown PPAR agonist activity. The following procedure was used for in vitro determination of PPARα, γ and δ transactivation.\nas §2"}, "[5]": {"molecular_target": "T3, human PPARγ1 (Homo sapiens, UniProt P37231)", "T3 construct": "expressed in transfected cells; host or cells: HEK-293", "T3 sequence (P37231 238-503 limits assumed)": "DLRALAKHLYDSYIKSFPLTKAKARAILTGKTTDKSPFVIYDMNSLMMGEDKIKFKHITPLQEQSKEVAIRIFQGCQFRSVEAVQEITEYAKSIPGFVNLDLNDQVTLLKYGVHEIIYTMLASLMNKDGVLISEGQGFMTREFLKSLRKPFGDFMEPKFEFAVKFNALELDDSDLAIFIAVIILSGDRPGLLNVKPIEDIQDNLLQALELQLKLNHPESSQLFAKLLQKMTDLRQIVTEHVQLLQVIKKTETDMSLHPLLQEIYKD", "assay": "in vitro PPARγ transactivation, GAL4-LBD luciferase reporter in HEK-293 cells", "format": "cell-based", "settings": "luciferase fold activation relative to untreated cells", "procedure": "as §1, §2"}}, "data": [{"smiles": "CCCc1nn(C)c2c(=O)n(CCOc3cccc(OC(C)(CC)C(=O)O)c3)c(C)nc12", "note": "(stereo not drawn) [Example 98, 2-{3-[2-(1,5-Dimethyl-7-oxo-3-propyl-1,7-dihydro-pyrazolo[4,3-d]pyrimidin-6-yl)-ethoxy]-phenoxy}-2-methyl-butyric acid]", "values": [{"measurement": "% reduction in TG", "setting": "[1]", "value": 65, "unit": "%"}, {"measurement": "melting point", "value": "130 to 132", "unit": "°C"}, {"measurement": "Reduction (%) LDL", "setting": "[2]; LDL cholesterol calculated by formula", "value": 75, "unit": "%"}, {"measurement": "↑HDL", "setting": "[2]; increase of plasma HDL (under head Reduction (%))", "value": 267, "unit": "%"}, {"measurement": "Reduction (%) TC", "setting": "[2]; plasma total cholesterol", "value": 67, "unit": "%"}, {"measurement": "Reduction (%) TG", "setting": "[2]; plasma triglyceride", "value": 81, "unit": "%"}, {"measurement": "PPARδ activation", "setting": "[3]; test compound at 1 μM", "value": 0.6}, {"measurement": "PPARδ activation", "setting": "[3]; test compound at 10 μM", "value": 3.3}, {"measurement": "PPARα activation", "setting": "[4]; test compound at 1 μM", "value": 5.0}, {"measurement": "PPARα activation", "setting": "[4]; test compound at 10 μM", "value": 5.7}, {"measurement": "PPARγ activation", "setting": "[5]; test compound at 1 μM", "value": "1.1(87.3)"}, {"measurement": "PPARγ activation", "setting": "[5]; test compound at 10 μM", "value": "0.3(85.3)"}]}]}
